Structures can show the parent of a compound that is named as a salt. Where two headings read alike, the source gives them in different places.
Columns and labels:
[1] = test system: platelet aggregation induced by PAF; assay: Platelet aggregation rate induced by PAF in platelet-rich plasma of rabbits after 7 days of administration; assay type: in vivo, Japanese large-ear white rabbits; conditions: 5.0 mg/kg once daily for 7 days; for Platelet aggregation rate 1 min / Platelet aggregation rate 5 min / Maximum platelet aggregation rate (MAX): PRP, x ± s, n = 8; for Platelet aggregation rate 1 min: 1 min after addition of 10 μL PAF; for Platelet aggregation rate 5 min: 5 min after addition of 10 μL PAF; for Maximum platelet aggregation rate (MAX): after addition of PAF; for inhibition at 5 mg/kg: Oryctolagus cuniculus, Platelet, 168 h
Experimental: (§1) All groups were administered with a clinically used route and dosage for 7 days continuously.
After 7 days of administration, 10.5 ml of blood was taken from the heart of each animal, wherein 1.5 ml of […] was used for taking serum and the rest 9 ml of […] was subjected to 3.8% sodium citrate at 1:9 for anticoagulation, centrifuging for 10 minutes at 800 r/min, and taking the supernatant to obtain platelet-rich plasma (PRP), wherein 100 μl of the PRP was taken for electron microscope examination, and the rest of the PRP was used for detecting of the platelet aggregation rate; the remaining portion was centrifuged for 15 min at a speed of 3000 r/min, and platelet-depleted plasma (PPP) was obtained. PPP was used to adjust the number of platelet in PRP, to be at 360×10^9/L. The platelet aggregation rate was recorded at 1 min, 5 min of addition of 10 μL of PAF inducer and the maximum platelet aggregation rate was recorded after the addition of PAR

platelets = assay: Scanning electron microscopy study of platelet morphology after addition of PAF; assay type: in vivo, Japanese large-ear white rabbits; conditions: rabbits, 5.0 mg/kg once daily for 7 days; PRP after addition of PAF, 100 platelets observed
Experimental: as §1
The 100 μL of PRP was placed in a silicification EP tube, and 1 μL of PAF was added to induce aggregation of platelets for 15 minutes, the PRP was then placed on a copper mesh sample support laid with a Formar membrane, incubating at 37° C. for 10 min, washing with ultrapure water, fixing with 3% glutaraldehyde for 5 minutes, rewashing with ultrapure water. After the sample on the copper mesh was naturally dried, a layer of 20 nm gold film was plated on the surface of the sample, and the cell morphology was studied with an electron microscope S-3000N. 100 of platelets were observed and calculated the ratio of each type of platelet. The types of platelet under the electron microscope includes: (1) Circle type appears circular or oval, with small size, compact center, large core and low and narrow transparent periphery zone. (2) Tree like type has a single or a plurality of elongated or sheet-shaped sometimes branched foot protrudes from the dense center. (3) Flat type has a dense core in the center and a wide transparent peripheral zone which has a smooth periphery or small bulges. (4) Aggregated-type is usually composed of several to dozens of platelets, with different sizes of the aggregates, wherein the platelets are mutually connected, some of the platelets are integrally fused into a whole, and the foot processes of the peripheral part are prominent.

[2] = cited from earlier work
[3] = PLATO study, cited from earlier work
[4] = in vivo; cited from earlier work
[5] = PAF-induced, relative to Saline group

Row | SMILES | Platelet aggregation rate 1 min [1] | Platelet aggregation rate 5 min [1] | Maximum platelet aggregation rate (MAX) [1] | inhibition at 5 mg/kg [1, 5] [%] | Types of morphology: Circle (platelets) [%] | Types of morphology: Flat (platelets) [%] | Types of morphology: Tree like (platelets) [%] | Severe bleeding rate ([2]; Clopidogrel-treated patients) [%] | Common side effects: abdominal pain ([2]; clinical trial (CAPRIE)) [%] | Common side effects: diarrhea ([2]; clinical trial (CAPRIE)) [%] | Common side effects: digestive tract hemorrhage ([2]; clinical trial (CAPRIE)) [%] | Common side effects: dyspepsia ([2]; clinical trial (CAPRIE)) [%] | Common side effects: intracranial hemorrhage ([2]; clinical trial (CAPRIE)) [%] | Common side effects: rash ([2]; clinical trial (CAPRIE)) [%] | Common side effects: serious granulocyte reduction ([2]; clinical trial (CAPRIE)) [%] | Platelet aggregation inhibition rate [1, 5] [%] | Occurrence rate of interventricular interval ([3]; acute stage) [%] | Occurrence rate of interventricular interval ([3]; after one month) [%] | Occurrence rate of common side effects (digestive tract symptoms and rash) [4]
1 | COC(=O)[C@H](c1ccccc1Cl)N1CCc2sccc2C1 [Clopidogrel, (S)-alpha-(2-chlorphenyl)-6,7-dihydrothieno [3,2-c]pyridine-5-(4H)acetate hydrogen sulfate] | 35.27 ± 6.08 | 53.73 ± 8.46 | 60.96 ± 9.50 | 13.2 | 7.7 ± 7.8 | 30.7 ± 13.6 | 24.6 ± 8.8 | 1.4 | 6 | 5 | 2 | 5 | 0.4 | 4 | 0.04 | – | – | – | –
2 | CC1C(=O)OC2C(O)C34C5CC(C(C)(C)C)C36C(OC(=O)C6O)OC4(C(=O)O5)C12O (centres unmarked) [Ginkgolide B] | 21.36 ± 4.15 | 33.54 ± 5.48 | – | – | 31.6 ± 6.4 | 46.1 ± 8.3 | 15.8 ± 6.8 | – | – | – | – | – | – | – | – | 44.66 | – | – | –
3 | CC(=O)Oc1cc2c(s1)CCN(C(C(=O)C1CC1)c1ccccc1F)C2 (centres unmarked) [Prasugrel] | 37.14 ± 8.59 | 55.56 ± 7.53 | 63.12 ± 5.47 | 10.1 | 9.9 ± 7.6 | 25.4 ± 8.7 | 19.6 ± 6.8 | – | – | – | – | – | – | – | – | – | – | – | –
4 | CCCSc1nc(N[C@@H]2C[C@H]2c2ccc(F)c(F)c2)c2nnn([C@@H]3C[C@H](OCCO)[C@@H](O)[C@H]3O)c2n1 [Ticagrelor, (1S,2S,3R,5S)-3-[7-[(1R,2S)-2-(3,4-Difluorophenyl)cycloprolamino]-5-(propylsulfanyl)-3H-[1,2,3]triazolo [4,5-d]pyrimidin-3-yl]-5-(2-hydroxyethoxy) cyclopenane-1,2-diol] | 34.21 ± 5.75 | 60.50 ± 9.24 | 67.74 ± 9.36 | 3.53 | 6.2 ± 7.5 | 33.6 ± 10.7 | 21.4 ± 9.4 | – | – | – | – | – | – | – | – | – | 60 | 2.2 | –
5 | Clc1ccccc1CN1CCc2sccc2C1 [Ticlopidine] | – | – | – | – | – | – | – | – | – | – | – | – | – | – | – | – | – | – | about 10%
